Test results reported in PMC12892976, “Alkylation-based optimization of antifungal FPPS inhibitors yields a potent, broad-spectrum lipophilic zoledronate derivative” (mBio, 2025).
≈ marks a conversion by molar mass, not a printed value.

How the values were obtained:
Candida auris = assay: checkerboard drug interaction (FICI, MICc); type: cell-based;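 further: simplified diagonal checkerboard screen pairing antifungals with FPPS inhibitors, with FICI computed under the Loewe additivity model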
Experimental: (§1) Drug interactions between antifungals and FPPS inhibitors were investigated using a simplified checkerboard diagonal screening method ([45]). […] FICIs were determined according to the Loewe additivity model ([17]).

Aspergillus felis [1] = assay: checkerboard drug interaction (FICI, MICc); type: cell-based;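 further: simplified diagonal checkerboard screen pairing antifungals with FPPS inhibitors, FICI calculated under the Loewe additivity model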
Experimental: as §1

Cryptococcus gattii [2] = assay: MIC broth microdilution (CLSI); type: cell-based; details: Cryptococcus gattii PNG27
Experimental: (§2) Antifungal susceptibility was determined by broth microdilution according to the CLSI guidelines described in M27-Ed4 ([16]).

Trichophyton soudanense = assay: checkerboard drug interaction (FICI, MICc); type: cell-based;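 further: simplified diagonal checkerboard screen pairing antifungals with FPPS inhibitors, FICI computed under the Loewe additivity model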
Experimental: as §1

Microsporum canis [3] = assay: checkerboard drug interaction (FICI, MICc); type: cell-based;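 further: simplified diagonal checkerboard screen pairing antifungals with FPPS inhibitors, FICI calculated under the Loewe additivity model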
Experimental: as §1

[4] = tested on: Cryptococcus deneoformans; assay: checkerboard drug interaction (FICI, MICc); type: cell-based;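 further: simplified diagonal checkerboard screen pairing antifungals with FPPS inhibitors, FICI calculated under the Loewe additivity model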
Experimental: as §1

[5] = tested on: Aspergillus frankstonensis; assay: MIC broth microdilution (CLSI); type: cell-based; details: Aspergillus frankstonensis DTO 341-F3
Experimental: as §2

Rhizopus oryzae [6] = assay: MIC broth microdilution (CLSI); type: cell-based; details: Rhizopus oryzae 04-14-364-1703
Experimental: as §2

Pichia kudriavzevii = assay: MIC broth microdilution (CLSI); type: cell-based; details: Pichia kudriavzavii ATCC 6258
Experimental: (§3) Antifungal susceptibility was determined by broth microdilution according to the CLSI guidelines described in M27-Ed4 ([16]). […] MFC was determined by back-plating drug-treated cultures from MIC broths onto SDA plates. The MFC was defined as the lowest concentration from which no colonies could be cultured.

Aspergillus felis [7] = assay: MIC broth microdilution (CLSI); type: cell-based; details: Aspergillus felis IHE87256683D6
Experimental: as §2

[8] = tested on: Cryptococcus bacillisporus; assay: MIC broth microdilution (CLSI); type: cell-based; details: Cryptococcus bacillisporus NIH179
Experimental: as §2

[9] = tested on: Cryptococcus bacillisporus; assay: checkerboard drug interaction (FICI, MICc); type: cell-based;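 further: interaction of antifungals with FPPS inhibitors assessed by a simplified diagonal checkerboard screen, with FICI computed under the Loewe additivity model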
Experimental: as §1

Trichophyton tonsurans = assay: MIC broth microdilution (CLSI); details: Trichophyton tonsurans R-168
Experimental: as §2

Cryptococcus gattii [10] = assay: checkerboard drug interaction (FICI, MICc); type: cell-based;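 further: simplified diagonal checkerboard screen pairing antifungals with FPPS inhibitors, FICI computed under the Loewe additivity model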
Experimental: as §1

Scedosporium apiospermum = assay: MIC broth microdilution (CLSI); type: cell-based; details: Scedosporium apiospermum 04-16-022-2268
Experimental: as §2

[11] = tested on: Trichophyton interdigitale; assay: checkerboard drug interaction (FICI, MICc);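 further: simplified diagonal checkerboard screen pairing antifungals with FPPS inhibitors, FICI values calculated under the Loewe additivity model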
Experimental: as §1

Aspergillus niger = assay: MIC broth microdilution (CLSI); type: cell-based; details: Aspergillus niger 111
Experimental: as §2

Aspergillus udagawae = assay: checkerboard drug interaction (FICI, MICc); type: cell-based;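 further: simplified diagonal checkerboard screen pairing antifungals with FPPS inhibitors, FICI calculated using the Loewe additivity model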
Experimental: as §1

Candida tropicalis [12] = assay: MIC broth microdilution (CLSI); type: cell-based; details: Candida tropicalis M230640
Experimental: as §2

Candida tropicalis [13] = assay: checkerboard drug interaction (FICI, MICc); type: cell-based;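 further: simplified diagonal checkerboard screen of antifungal plus FPPS inhibitor combinations, with FICI computed by the Loewe additivity model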
Experimental: as §1

[14] = tested on: Aspergillus frankstonensis; assay: checkerboard drug interaction (FICI, MICc);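 further: simplified diagonal checkerboard screen pairing antifungals with FPPS inhibitors, FICI calculated using the Loewe additivity model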
Experimental: as §1

Candida parapsilosis [15] = assay: MIC broth microdilution (CLSI); type: cell-based; details: Candida parapsilosis ATCC 22018
Experimental: as §3

Paraphyton cookei = assay: MIC broth microdilution (CLSI); type: cell-based; details: Paraphyton cookei R-639
Experimental: as §2

Candida parapsilosis [16] = assay: checkerboard drug interaction (FICI, MICc); type: cell-based;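 further: simplified diagonal checkerboard screen pairing antifungals with FPPS inhibitors, with FICI computed under the Loewe additivity model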
Experimental: as §1

Nannizzia nana [17] = assay: MIC broth microdilution (CLSI); type: cell-based; details: Nannizzia nana R-133
Experimental: as §2

Lomentospora prolificans = assay: MIC broth microdilution (CLSI); type: cell-based; details: Lomentospora prolificans 80-16-101-2445
Experimental: as §2

Aspergillus lentulus [18] = assay: checkerboard drug interaction (FICI, MICc); type: cell-based;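 further: simplified diagonal checkerboard screen pairing antifungals with FPPS inhibitors, with the interaction index calculated under the Loewe additivity model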
Experimental: as §1

Microsporum canis [19] = assay: MIC broth microdilution (CLSI); details: Microsporum canis R-232
Experimental: as §2

Aspergillus parafelis = assay: checkerboard drug interaction (FICI, MICc);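 further: simplified diagonal checkerboard screen pairing antifungals with FPPS inhibitors, FICI calculated under the Loewe additivity model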
Experimental: as §1

Aspergillus terreus = assay: MIC broth microdilution (CLSI); type: cell-based; details: Aspergillus terreus 75-16-089-2500
Experimental: as §2

Mucor circinelloides = assay: checkerboard drug interaction (FICI, MICc); type: cell-based
Experimental: as §1

Rhizopus oryzae [20] = assay: checkerboard drug interaction (FICI, MICc); type: cell-based
Experimental: as §1

Aspergillus lentulus [21] = assay: MIC broth microdilution (CLSI); type: cell-based; details: Aspergillus lentulus DTO 341-G7
Experimental: as §2

Nannizzia nana [22] = assay: checkerboard drug interaction (FICI, MICc); type: cell-based
Experimental: as §1

Epidermophyton floccosum = assay: MIC broth microdilution (CLSI); type: cell-based; details: Epidermophyon floccosum R-113
Experimental: as §2

SMILES: CCC(C)n1ncn(-c2ccc(N3CCN(c4ccc(OCC5COC(Cn6cncn6)(c6ccc(Cl)cc6Cl)O5)cc4)CC3)cc2)c1=O (stereo not shown) [ITR, itraconazole]
- antifungal MICc (Candida auris; in combination with 10-ZOL): 1
- antifungal MICc (Candida auris; in combination with ZOL): 1
- antifungal MICc (Aspergillus felis [1]; in combination with 10-ZOL): 0.5
- antifungal MICc (Aspergillus felis [1]; in combination with ZOL): 1
- MIC / MEC (Cryptococcus gattii [2]): 0.25 µg/mL (≈ 0.354 µM)
- antifungal MICc (Trichophyton soudanense; in combination with 10-ZOL): 0.25
- antifungal MICc (Trichophyton soudanense; in combination with ZOL): 0.25
- antifungal MICc (Microsporum canis [3]; in combination with 10-ZOL): 0.063
- antifungal MICc (Microsporum canis [3]; in combination with ZOL): 0.25
- antifungal MICc ([4]; in combination with 10-ZOL): 0.063
- antifungal MICc ([4]; in combination with ZOL): 0.125
- MIC / MEC [5]: 2 µg/mL (≈ 2.83 µM)
- MIC / MEC (Rhizopus oryzae [6]): 2 µg/mL (≈ 2.83 µM)
- MIC / MEC (Pichia kudriavzevii): 1 µg/mL (≈ 1.42 µM)
- MIC / MEC (Aspergillus felis [7]): 2 µg/mL (≈ 2.83 µM)
- MIC / MEC [8]: 0.06 µg/mL (≈ 0.085 µM)
- antifungal MICc ([9]; in combination with 10-ZOL): 0.033
- antifungal MICc ([9]; in combination with ZOL): 0.0625
- MIC / MEC (Trichophyton tonsurans): 1 µg/mL (≈ 1.42 µM)
- antifungal MICc (Cryptococcus gattii [10]; in combination with 10-ZOL): 0.125
- antifungal MICc (Cryptococcus gattii [10]; in combination with ZOL): 0.125
- MIC / MEC (Scedosporium apiospermum): 8 µg/mL (≈ 11.3 µM)
- antifungal MICc ([11]; in combination with 10-ZOL): 0.5
- antifungal MICc ([11]; in combination with ZOL): 0.25
- MIC / MEC (Aspergillus niger): 2 µg/mL (≈ 2.83 µM)
- antifungal MICc (Aspergillus udagawae; in combination with 10-ZOL): 0.25
- antifungal MICc (Aspergillus udagawae; in combination with ZOL): 0.5
- MIC / MEC (Candida tropicalis [12]): 0.25 µg/mL (≈ 0.354 µM)
- antifungal MICc (Candida tropicalis [13]; in combination with 10-ZOL): 0.125
- antifungal MICc (Candida tropicalis [13]; in combination with ZOL): 0.062
- antifungal MICc ([14]; in combination with 10-ZOL): 1
- antifungal MICc ([14]; in combination with ZOL): 2
- MIC / MEC (Candida parapsilosis [15]): 0.25 µg/mL (≈ 0.354 µM)
- MIC / MEC (Paraphyton cookei): 2 µg/mL (≈ 2.83 µM)
- antifungal MICc (Candida parapsilosis [16]; in combination with 10-ZOL): 0.125
- antifungal MICc (Candida parapsilosis [16]; in combination with ZOL): 0.062
- MIC / MEC (Nannizzia nana [17]): 0.25 µg/mL (≈ 0.354 µM)
- MIC / MEC (Lomentospora prolificans): 4 µg/mL (≈ 5.67 µM)
- antifungal MICc (Aspergillus lentulus [18]; in combination with 10-ZOL): 0.25
- antifungal MICc (Aspergillus lentulus [18]; in combination with ZOL): 0.5
- MIC / MEC (Microsporum canis [19]): 0.5 µg/mL (≈ 0.709 µM)
- antifungal MICc (Aspergillus parafelis; in combination with 10-ZOL): 2
- antifungal MICc (Aspergillus parafelis; in combination with ZOL): 8
- MIC / MEC (Aspergillus terreus): 0.5 µg/mL (≈ 0.709 µM)
- antifungal MICc (Mucor circinelloides; in combination with 10-ZOL): 0.25
- antifungal MICc (Mucor circinelloides; in combination with ZOL): 0.06
- antifungal MICc (Rhizopus oryzae [20]; in combination with 10-ZOL): 0.125
- antifungal MICc (Rhizopus oryzae [20]; in combination with ZOL): 2
- MIC / MEC (Aspergillus lentulus [21]): 2 µg/mL (≈ 2.83 µM)
- antifungal MICc (Nannizzia nana [22]; in combination with 10-ZOL): 0.25
- antifungal MICc (Nannizzia nana [22]; in combination with ZOL): 0.13
- MIC / MEC (Epidermophyton floccosum): 1 µg/mL (≈ 1.42 µM)
